According to publication PMC8228075, “In Vitro and In Silico Characterization of G-Protein Coupled Receptor (GPCR) Targets of Phlorofucofuroeckol-A and Dieckol” (Marine Drugs, 2021):
pEC50, pIC50: −log10 of the molar value.

Experiments:
Assay type in all cases: cell-based
[1] = target: T1, Cannabinoid receptor 1 (CB1R) (Homo sapiens, UniProt P21554); assay: hCB1R functional antagonist assay (cAMP, HTRF, CHO cells); conditions: reference antagonist; read-out: Reference Drugs, IC50
T1 construct: host or cells: CHO cells
Experimental: (§1) The in-house assay protocol and experimental conditions are reported in our previous reports. The functional effect of dieckol and PFF-A was characterized based on their modulation effect on cytosolic Ca^2+ ion mobilization using a fluorimetric detection method or by measuring their effect on cAMP modulation using homogeneous time-resolved fluorescence (HTRF) detection.
(§2) Functional activity of phlorotannins over hA2AR, hα2CAR, hCB1R, GLP-1R, and h5-HT1BR was determined by measuring their effects on cAMP production by the HTRF detection method using transected cells expressing human cloned receptors.
The transfected CHO cells were suspended in HBSS buffer (Invitrogen) complemented with 20 mM HEPES (pH 7.4). […] After 30 min of incubation at 37 °C, the cells were lysed and the fluorescence acceptor (D2-labeled cAMP) and fluorescence donor (anti-cAMP antibody labeled with europium cryptate) were added.

h5-HT1BR = h5-HT1BR (Homo sapiens, UniProt P28222); assay: h5-HT1BR functional antagonist assay (cAMP, HTRF, Hela cells)
Experimental: as §1, §2
Concisely, a plasmid containing the GPCR gene of interest (5-HT1B) was transfected into Hela cells. The resulting stable transfectants were suspended in HBSS buffer (Invitrogen, Carlsbad, CA, USA) containing 20 mM HEPES (pH 7.4), […], 1 mg/mL glucose, and 500 μM IBMX and distributed in microplates at a density of 2 × 10^4 cells/well. […] Then, the cells were lysed and a fluorescence acceptor (D2-labeled cAMP) and fluorescence donor (anti-cAMP antibody with europium cryptate) were added following 60 min incubation at RT.

[2] = target: T2, Alpha-2A adrenergic receptor (hα2AAR) (Homo sapiens, UniProt P08913); assay: hα2AAR functional antagonist assay (Ca2+ mobilization, rat basophil leukemia cells); conditions: reference antagonist; read-out: Reference Drugs, IC50
T2 construct: host or cells: rat basophil leukemia cells
T2 sequence (P08913 1-465): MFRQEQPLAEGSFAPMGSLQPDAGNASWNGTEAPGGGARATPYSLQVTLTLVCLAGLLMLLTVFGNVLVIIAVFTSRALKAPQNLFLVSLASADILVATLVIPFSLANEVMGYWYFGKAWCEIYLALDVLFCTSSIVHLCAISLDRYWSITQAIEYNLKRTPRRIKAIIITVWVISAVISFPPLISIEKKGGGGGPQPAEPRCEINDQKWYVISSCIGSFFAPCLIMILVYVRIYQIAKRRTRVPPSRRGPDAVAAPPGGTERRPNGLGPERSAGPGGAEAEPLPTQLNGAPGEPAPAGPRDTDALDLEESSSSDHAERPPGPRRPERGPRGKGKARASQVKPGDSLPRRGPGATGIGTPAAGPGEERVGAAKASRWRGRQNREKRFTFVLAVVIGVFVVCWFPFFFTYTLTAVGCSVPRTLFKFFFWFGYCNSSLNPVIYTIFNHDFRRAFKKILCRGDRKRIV
Description: as §1
The rat basophil leukemia cells were distributed in microplates at a density of 1.1 × 10^4 cells/well after suspending in a HBSS buffer (Invitrogen) containing 20 mM HEPES. Then, the fluorescent probe (Fluo8, AAT Bioquest) mixed with probenecid in HBSS buffer (Invitrogen) complemented with 20 mM Hepes (Millipore) (pH 7.4) was added into each well incubated for 60 min at 30 °C. Thereafter, the assay plates were positioned in a microplate reader (FlipR Tetra, Molecular Device) and we added test compounds, reference agonist/antagonist or HBSS buffer (basal control). Change in fluorescence intensity which varies proportionally to the free cytosolic Ca^2+ ion concentration was measured.

[3] = target: T3, Free fatty acid receptor 1 (FFA1R) (GPR40) (Homo sapiens, UniProt O14842); assay: FFA1R/GPR40 functional agonist assay (Ca2+ mobilization, HEK-293 cells); conditions: reference agonist; read-out: Reference Drugs, EC50
T3 construct: host or cells: HEK-293 cells
Experimental: The in-house assay protocol and experimental conditions are reported in our previous reports. […] Then, the mixture of fluorescent probe (Fluo4 Direct, Invitrogen) and probenecid in HBSS buffer (Invitrogen) complemented with 20 mM Hepes (Invitrogen) (pH 7.4) was added into each well and incubated for 60 min at 37 °C, followed by 15 min incubation at 22 °C. Thereafter, the assay plates were positioned in a CellLux microplate reader (PerkinElmer, Waltham, MA, USA) which was used for the addition of the following: For agonist assay-test compound, reference agonist, or HBSS buffer (basal control). Linoleic acid at 100 μM was added in separate assay wells for stimulated control measurement.

T1 sequence (P21554 whole entry): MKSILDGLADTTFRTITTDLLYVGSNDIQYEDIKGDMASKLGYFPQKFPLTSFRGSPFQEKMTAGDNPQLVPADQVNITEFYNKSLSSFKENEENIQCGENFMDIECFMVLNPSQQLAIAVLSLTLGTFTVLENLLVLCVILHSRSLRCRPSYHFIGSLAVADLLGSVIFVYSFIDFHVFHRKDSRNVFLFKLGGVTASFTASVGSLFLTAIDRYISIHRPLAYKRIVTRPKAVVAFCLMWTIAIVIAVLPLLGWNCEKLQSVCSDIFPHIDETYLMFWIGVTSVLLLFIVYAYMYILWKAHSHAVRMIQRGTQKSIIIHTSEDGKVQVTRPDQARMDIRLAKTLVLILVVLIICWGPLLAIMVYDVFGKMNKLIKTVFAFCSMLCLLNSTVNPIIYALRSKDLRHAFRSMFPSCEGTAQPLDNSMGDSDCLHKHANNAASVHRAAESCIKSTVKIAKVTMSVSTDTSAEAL
T3 sequence (O14842 whole entry): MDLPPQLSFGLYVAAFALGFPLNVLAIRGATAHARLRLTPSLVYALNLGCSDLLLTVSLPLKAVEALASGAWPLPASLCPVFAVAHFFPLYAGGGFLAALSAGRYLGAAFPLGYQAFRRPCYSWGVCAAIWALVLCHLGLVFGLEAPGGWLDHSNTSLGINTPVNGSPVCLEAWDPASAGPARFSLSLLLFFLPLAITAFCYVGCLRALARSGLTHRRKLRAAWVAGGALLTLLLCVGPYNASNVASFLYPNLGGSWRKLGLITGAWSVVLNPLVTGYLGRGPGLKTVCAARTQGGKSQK
Sequence of h5-HT1BR (P28222 whole entry): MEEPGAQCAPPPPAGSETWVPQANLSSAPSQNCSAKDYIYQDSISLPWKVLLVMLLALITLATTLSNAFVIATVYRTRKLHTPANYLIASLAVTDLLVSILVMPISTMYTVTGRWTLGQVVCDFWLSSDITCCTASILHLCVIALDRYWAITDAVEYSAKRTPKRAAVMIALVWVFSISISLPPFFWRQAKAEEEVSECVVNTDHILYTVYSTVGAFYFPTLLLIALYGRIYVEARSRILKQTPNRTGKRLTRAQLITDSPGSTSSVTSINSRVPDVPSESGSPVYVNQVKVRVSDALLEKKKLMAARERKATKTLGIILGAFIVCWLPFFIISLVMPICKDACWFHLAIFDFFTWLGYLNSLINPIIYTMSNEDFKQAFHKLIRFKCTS

Cc1c(C(=O)NN2CCOCC2)nn(-c2ccc(Cl)cc2Cl)c1-c1ccc(I)cc1 [AM 281, reference compound]
pIC50 [1]: 7.11

CN(C)CCCc1cc(C(=O)Nc2ccc(-c3ccncc3)cc2)ccc1O [GR55562, reference compound]
pIC50 (h5-HT1BR): 7.64

COC1(C2=NCCN2)COc2ccccc2O1 (stereo not shown) [RX-821002, reference compound]
pIC50 [2]: 7.77

CCCCC/C=C\C/C=C\CCCCCCCC(=O)O [linoleic acid, reference compound]
pEC50 [3]: 5.00
